In data set [1] the test system is beta amyloid production. The data set can be described thus: Repressor Release Assay (RRA). The note with it: for APPI % of Example #98: relative to Example 98. Type of data set: cell-based. The gist of the method:
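Read-out is luciferase luminescence (RLU) after 36-48 h duplicate compound exposure of transfected CHO-K1 cells. These cells carry transiently introduced APP-lacI and pRSVO-luc DNA. Diluent control was 25 mM Hepes/1% DMSO; toxicity recorded as binary score (1 non-toxic, 0 toxic).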

The test system of data set [2] is CHO-K1 cells. The data set can be described thus: Toxicity in RRA (loss of luciferase signal). The note with it: toxicity = loss of signal (<0.75 fold increase).
Method: The beta amyloid inhibitory activity of the compounds of the present invention was determined using the Repressor Release Assay (RRA).
“Fold Increase” refers to the amount of luciferase activity (measured in relative light units) over diluent control. “SEM” refers to the standard error of the mean for fold increase.
Where [3] appears, read: Conc 20 μg/ml, luciferase activity over diluent control, read-out: APPI Fold Increase.
Where [4] appears, read: Conc 10 μg/ml, luciferase activity over diluent control.
Where [5] appears, read: Conc 20 μg/ml, luciferase activity (RLU) over diluent control, read-out: APPI Fold Increase.
Setting [6] is: Conc 20 μg/ml, 1=non-toxic, 0=toxic.
Where [7] appears, read: Conc 10 μg/ml, luciferase activity over diluent control, read-out: APPI Fold Increase.

Like-named read-outs stand apart in the source and are kept apart here.

A word on the melting point: it is the temperature, or range, at which the solid turns liquid. In turn, `CC[C@H](C)[C@@H](CO)NS(=O)(=O)c1ccc(Cl)c(N)c1` [Example 14, 3-Amino-4-chloro-N-[(1S,2S)-1-(hydroxymethyl)-2-methylbutyl]benzenesulfonamide] returned a melting point of 89 to 92 °C. In addition, the fold induction at 20 µg/mL in data set [1] (setting [3]) is 1.9. In addition, in data set [2] (Conc 20 μg/ml), the “(%)APPI Toxicity” value was 1 (1=non-toxic).

With `CC[C@H](C)[C@@H](CO)N(Cc1ccc(OC)c(OC)c1)S(=O)(=O)c1ccc(Cl)cc1` [Example 45, 4-chloro-N-(3,4-dimethoxybenzyl)-N-[(1S,2S)-1-(hydroxymethyl)-2-methylbutyl]benzenesulfonamide], the fold induction at 20 µg/mL in data set [1] (setting [3]) stood at 1.5. In data set [2] (Conc 20 μg/ml), the “(%)APPI Toxicity” value is 1 (1=non-toxic).

As for `CC[C@H](C)[C@H](NS(=O)(=O)c1ccc(Br)cc1)C(O)CCC1OCCCO1` (stereo partly drawn) [Example 160, 4-bromo-N-{(1S)-4-(1,3-dioxan-2-yl)-2-hydroxy-1-[(1S)-1-methylpropyl]butyl} benzenesulfonamide], the “APPI Fold Increase” value in data set [1] (setting [4]) came to 1.66 fold. In data set [1] (Conc 10 μg/ml), the “APPI % of Example #98” value came to 73.83%. In addition, the “(%)APPI Toxicity” value in data set [2] (Conc 10 μg/ml) is 1 (1=non-toxic).

As to `CCCCC[C@H](C)[C@@H](CO)NS(=O)(=O)c1ccc(Br)cc1` [Example 80, 4-bromo-N-[(1S,2S)-1-(hydroxymethyl)-2-methylheptyl]benzenesulfonamide], in data set [1] (setting [5]), the fold induction at 20 µg/mL is 3.9. Moreover, the “(%)APPI Toxicity” value in data set [2] (setting [6]) is given as 1 (1=non-toxic).

`CC(C)[C@@H](CO)NS(=O)(=O)c1ccc(Cl)c(Cl)c1` [Example 27, 3,4-dichloro-N-[(1S)-1-(hydroxymethyl)-2-methylpropyl]benzenesulfonamide]: the fold induction at 20 µg/mL in data set [1] (setting [3]) turned out to be 2.2. For the same compound, the “(%)APPI Toxicity” value in data set [2] (Conc 20 μg/ml) is 1 (1=non-toxic).

With `CC(C)C[C@@H](C(C)C)[C@@H](CO)NS(=O)(=O)c1ccc(Br)cc1` [Example 87, 4-bromo-N-[(1S,2S)-1-(hydroxymethyl)-2-isopropyl-4-methylpentyl]benzenesulfonamide], the fold induction at 20 µg/mL in data set [1] (setting [5]) amounted to 8.8. In addition, the “(%)APPI Toxicity” value in data set [2] (setting [6]) is 1 (1=non-toxic).

Turning to `CC[C@H](C)[C@H](NS(=O)(=O)c1ccc(Cl)cc1)C(O)c1ccccc1C` (stereo partly drawn) [Example 171, 4-chloro-N-{(1S,2S)-1-[hydroxy(2-methylphenyl)methyl]-2-methylbutyl}benzenesulfonamide], the fold induction at 10 µg/mL in data set [1] (setting [7]) stood at 1.54. In data set [2] (Conc 10 μg/ml), the “(%)APPI Toxicity” value is recorded as 1 (1=non-toxic).

`CC[C@H](C)[C@@H](CO)NS(=O)(=O)c1ccc(Cl)c(Cl)c1` [Example 24, 3,4-dichloro-N-[(1S,2S)-1-(hydroxymethyl)-2-methylbutyl]benzenesulfonamide]: the fold induction at 20 µg/mL in data set [1] (setting [3]) came out at 1.6. For the same compound, the “(%)APPI Toxicity” value in data set [2] (Conc 20 μg/ml) is 1 (1=non-toxic).

Take `CCCCCC[C@@H](CCC)[C@@H](CO)NS(=O)(=O)c1ccc(Cl)cc1` [Example 58, 4-chloro-N-[(1S,2R)-1-(hydroxymethyl)-2-propyloctyl]benzenesulfonamide]: the fold induction at 20 µg/mL in data set [1] (setting [5]) was found to be 2.6. The “(%)APPI Toxicity” value in data set [2] (setting [6]) is listed as 1 (1=non-toxic).

For `O=S(=O)(NC1(CO)CCCC1)c1ccc(Br)cc1` [Example 94, 4-bromo-N-[1-(hydroxymethyl)cyclopentyl]benzenesulfonamide], the fold induction at 20 µg/mL in data set [1] (setting [3]) turned out to be 2.5. For the same compound, the “(%)APPI Toxicity” value in data set [2] (Conc 20 μg/ml) is 1 (1=non-toxic).

On to `CC[C@H](C)[C@H](NS(=O)(=O)c1ccccc1F)C(O)CCC1OCCCO1` (stereo partly drawn) [Example 210, N-{(1S)-4-(1,3-dioxan-2-yl)-2-hydroxy-1-[(1S)-1-methylpropyl]butyl}-2-fluorobenzenesulfonamide], for which, in data set [1] (setting [7]), the fold induction at 10 µg/mL amounted to 1.68. Besides, in data set [2] (Conc 10 μg/ml), the “(%)APPI Toxicity” value is on record as 1 (1=non-toxic).

For the compound `CC[C@H](C)[C@H](NS(=O)(=O)c1cccc(Cl)c1)C(O)C1CCCC1` (stereo partly drawn) [Example 186, 3-chloro-N-{(1S,2S)-1-[cyclopentyl(hydroxy)methyl]-2-methylbutyl}benzenesulfonamide], the fold induction at 10 µg/mL in data set [1] (setting [7]) was found to be 3.86. Further, the “(%)APPI Toxicity” value in data set [2] (Conc 10 μg/ml) is 1 (1=non-toxic).

Take `CC[C@H](C)[C@@H](CO)NS(=O)(=O)c1cccc(Cl)c1` [Example 3, 3-chloro-N-[(1S,2S)-1-(hydroxymethyl)-2-methylbutyl]benzenesulfonamide]: in data set [1] (setting [3]), the fold induction at 20 µg/mL worked out at 3.6. Moreover, the “(%)APPI Toxicity” value in data set [2] (Conc 20 μg/ml) is listed as 1 (1=non-toxic).

Regarding `CC[C@H](C)[C@H](NS(=O)(=O)c1ccc(Br)cc1)C(O)c1ccc(F)cc1` (stereo partly drawn) [Example 154, 4-bromo-N-{(1S,2S)-1-[(4-fluorophenyl) (hydroxy)methyl]-2-methylbutyl}benzenesulfonamide], the fold induction at 10 µg/mL in data set [1] (setting [7]) is 1.68. The “(%)APPI Toxicity” value in data set [2] (Conc 10 μg/ml) is reported as 1 (1=non-toxic).

For “3-chloro-N-{(1S)-2-hydroxy-2-isopropenyl-3-methyl-1-[(18)-1-methylpropyl]-3-butenyl}benzenesulfonamide [Example 257]”, the “APPI Fold Increase” value in data set [1] (setting [4]) is on record as 2.54 fold; in data set [1] (Conc 20 μg/ml, luciferase activity over diluent control) it was 2.5 fold. Further, the “APPI % of Example #98” value was determined as 94.5% in data set [1] (Conc 10 μg/ml) and 68.8% in data set [1] (Conc 20 μg/ml). Further, the “(%)APPI Toxicity” value in data set [2] (Conc 10 μg/ml) and in data set [2] (Conc 20 μg/ml) was 1 (1=non-toxic) throughout.

Take `CC[C@H](C)[C@@H](CO)NS(=O)(=O)c1ccc(Cl)c2nnoc12` [Example 4, 4-chloro-N-[(1S,2S)-1-(hydroxymethyl)-2-methylbutyl]-1,2,3-benzoxadiazole-7-sulfonamide]: the fold induction at 20 µg/mL in data set [1] (setting [3]) was 1.5. In addition, in data set [2] (Conc 20 μg/ml), the “(%)APPI Toxicity” value was 1 (1=non-toxic).

For the compound `CC(C)C[C@@H](c1ccco1)[C@@H](CO)NS(=O)(=O)c1ccc(Br)cc1` [Example 86, 4-bromo-N-[(1S,2R)-2-(2-furyl)-1-(hydroxymethyl)-4-methylpentyl]benzenesulfonamide], the fold induction at 20 µg/mL in data set [1] (setting [5]) was 1.6. In data set [2] (setting [6]), the “(%)APPI Toxicity” value is given as 1 (1=non-toxic).

`O=S(=O)(NC1(CO)CCc2ccccc21)c1ccc(Br)cc1` (stereo not shown) [Example 122, 4-bromo-N-[1-(hydroxymethyl)-2,3-dihydro-1H-inden-1-yl]benzenesulfonamide]: in data set [1] (setting [3]), the fold induction at 20 µg/mL is 1.5. The “(%)APPI Toxicity” value in data set [2] (Conc 20 μg/ml) is 1 (1=non-toxic).

For `C=CCN([C@H](CO)[C@@H](C)CC)S(=O)(=O)c1ccc(Cl)cc1` [Example 40, N-Allyl-4-chloro-N-[(1S,2 S)-1-(hydroxymethyl)-2-methylbutyl]benzenesulfonamide], in data set [1] (setting [3]), the fold induction at 20 µg/mL stood at 3.4. Also, in data set [2] (Conc 20 μg/ml), the “(%)APPI Toxicity” value was 1 (1=non-toxic).

In the case of `CCC[C@H](CC)[C@@H](CO)NS(=O)(=O)c1ccc(Br)cc1` [Example 77, 4-bromo-N-[(1S,2S)-2-ethyl-1-(hydroxymethyl)pentyl]benzenesulfonamide], the fold induction at 20 µg/mL in data set [1] (setting [5]) was 5.9. In addition, the “(%)APPI Toxicity” value in data set [2] (setting [6]) was 1 (1=non-toxic).

For `CCC[C@H](c1ccccc1)[C@@H](CO)NS(=O)(=O)c1ccc(Cl)cc1` [Example 59, 4-chloro-N-[(1S,2R)-1-(hydroxymethyl)-2-phenylpentyl]benzenesulfonamide], in data set [1] (setting [5]), the fold induction at 20 µg/mL worked out at 3.2. The “(%)APPI Toxicity” value in data set [2] (setting [6]) is reported as 1 (1=non-toxic).

With `C[C@@H](c1ccccc1)[C@@H](CO)NS(=O)(=O)c1ccc(Cl)cc1` [Example 63, 4-chloro-N-[(1S,2S)-1-(hydroxymethyl)-2-phenylpropyl]benzenesulfonamide], in data set [1] (setting [5]), the fold induction at 20 µg/mL is 2. In addition, the “(%)APPI Toxicity” value in data set [2] (setting [6]) was 1 (1=non-toxic).

Take `CC#CC(O)[C@@H](NS(=O)(=O)c1ccc(Br)cc1)[C@@H](C)CC` (stereo partly drawn) [Example 162, 4-bromo-N-{(1S)-2-hydroxy-1-[(1S)-1-methylpropyl]-3-pentynyl}benzenesulfonamide]: in data set [1] (setting [7]), the fold induction at 10 µg/mL amounted to 1.63. In data set [2] (Conc 10 μg/ml), the “(%)APPI Toxicity” value is on record as 1 (1=non-toxic).

In the case of `CC[C@H](C)[C@@H](CO)N(Cc1ccc(-c2ccccc2)cc1)S(=O)(=O)c1ccc(Cl)cc1` [Example 41, N-([1,1′-biphenyl]-4-ylmethyl)-4-chloro-N-[(1S,2S)-1-(hydroxymethyl)-2-methylbutyl]benzenesulfonamide], the fold induction at 20 µg/mL in data set [1] (setting [3]) amounted to 4.9. In data set [2] (Conc 20 μg/ml), the “(%)APPI Toxicity” value is listed as 1 (1=non-toxic).

Regarding `CC[C@H](C)[C@H](NS(=O)(=O)c1ccc(F)cc1)C(C)(C)O` [Example 235, 4-fluoro-N-[(1S,2S)-1-(1-hydroxy-1-methylethyl)-2-methylbutyl]benzenesulfonamide], the fold induction at 10 µg/mL in data set [1] (setting [7]) amounted to 1.88. Besides, in data set [2] (Conc 10 μg/ml), the “(%)APPI Toxicity” value is 1 (1=non-toxic).

For the compound `CC[C@H](C)[C@@H](CO)NS(=O)(=O)c1ccc(Br)c(Br)c1` [Example 22, 3,4-dibromo-N-[(1S,2S)-1-(hydroxymethyl)-2-methylbutyl]benzenesulfonamide], the fold induction at 20 µg/mL in data set [1] (setting [3]) is 1.7. In addition, the “(%)APPI Toxicity” value in data set [2] (Conc 20 μg/ml) was 1 (1=non-toxic).

Take `CSCC[C@H](CO)NS(=O)(=O)c1cccc(Cl)c1` [Example 107, 3-chloro-N-[(1R)-1-(hydroxymethyl)-3-(methylthio)propyl]benzenesulfonamide]: in data set [1] (Conc 1 μg/ml, luciferase activity over diluent control, read-out: APPI Fold Increase), the fold induction at 1 µg/mL amounted to 2.35. For the same compound, the “(%)APPI Toxicity” value in data set [2] (Conc 1 μg/ml) is recorded as 1 (1=non-toxic).

Regarding `CCCCC[C@H](CC)[C@@H](CO)NS(=O)(=O)c1ccc(Br)cc1` [Example 81, 4-bromo-N-[(1S,2S)-2-ethyl-1-(hydroxymethyl)heptyl]benzenesulfonamide], the fold induction at 20 µg/mL in data set [1] (setting [5]) stood at 5. Further, the “(%)APPI Toxicity” value in data set [2] (setting [6]) is recorded as 1 (1=non-toxic).

Take `CCC(O)[C@@H](NS(=O)(=O)c1ccc(Cl)cc1)[C@@H](C)CC` (stereo partly drawn) [Example 176, 4-chloro-N-{(1S)-2-hydroxy-1-[(1S)-1-methylpropyl]butyl}benzenesulfonamide]: the fold induction at 10 µg/mL in data set [1] (setting [7]) worked out at 2.63. The “(%)APPI Toxicity” value in data set [2] (Conc 10 μg/ml) was 1 (1=non-toxic).

The values above are taken from patent US7166622B2, “Substituted phenylsulfonamide inhibitors of beta amyloid production” (Wyeth, priority 2002, dated 2007).
